Reference: patent publication US7267964B2, “DNA molecules encoding ligand gated ion channels from Dermacentor variabilis” (priority 2000, dated 2007)

Legend:
Type in all cases: cell-based, Dermacentor variabilis
[1] = tested on: DvLGIC/GluCl 1; assay: Two-microelectrode voltage clamp of Xenopus oocytes injected with DvLGIC/GluCl 1 RNA
Source text: (§1) Synthesis of in vitro transcribed capped RNA—A PCR strategy was used to add the T7 promoter upstream of the initiating methionine (ATG) and a polyA^+ tail following the stop codon (TAG) of the open reading frame (ORF) of clones DvLGIC/GluCl1, DvLGIC/GluCl 11, DvLGIC/GluCl 7-1 and DvLGIC/GluCl 10-2. Amplified ORFs which contained the flanking T7 promoter and polyA^+ tail were used directly as templates in the in vitro transcription reaction (mMessage mMachine™, Ambion, Austin, Tex.). After removal of DNA template, the volume was adjusted to 100 μl with nuclease free water, and RNA purified using a G-50 Sephadex Column (Boehringer Mannheim, Indianapolis, Ind.). The elutate was extracted with an equal volume of phenol/chloroform, followed with a second chloroform extraction, precipitated with isopropyl alcohol, and resuspended in nuclease-free water to a storage concentration of 1 μg/μl.
(§2) Xenopus laevis oocytes were prepared and injected using standard methods previously described [Arena, J. P., Liu, K. K., Paress, P. S. & Cully, D. F. Mol. Pharmacol. 40, 368-374 (1991); Arena, J. P., Liu, K. K., Paress, P. S., Schaeffer, J. M. & Cully, D. F., Mol. Brain Res. 15, 339-348 (1992)]. Adult female Xenopus laevis were anesthetized with 0.17% tricaine methanesulfonate and the ovaries were surgically removed and placed in a solution consisting of (mM): NaCl 82.5, KCl 2, MgCl2 1, HEPES 5, NaPyruvate 2.5, Penicillin G. 100,000 units/L, Streptomycin Sulfate 1000 mg/L, pH 7.5 (Mod. OR-2). Ovarian lobes were broken open, rinsed several times in Mod. OR-2, and incubated in 0.2% collagenase (Sigma, Type1) in Mod. OR-2 at room temperature with gentle shaking. After 1 hour the collagenase solution was renewed and the oocytes were incubated for an additional 30-90 min until approximately 50% of the oocytes were released from the ovaries. Stage V and VI oocytes were selected and placed in media containing (mM): NaCl 96, KCl 2, MgCl2 1, CaCl2 1.8, HEPES 5, NaPyruvate 2.5, theophylline 0.5, gentamicin […], pH 7.5 (ND-96) for 16-24 hours before injection. Oocytes were injected with 50 nl of DvLGIC/GluCl1 or DvLGIC/GluCl 7-1 RNA at a concentration of 0.2 mg/ml. Oocytes were incubated at 18° C. for 1-6 days in ND-96 before recording.
(§3) Recordings were made at room temperature in modified ND-96 consisting of (mM): NaCl 96, MgCl2 1, CaCl2 0.1, BaCl2 3.5, HEPES 5, pH 7.5. Oocytes were voltage clamped using a Dagan CA1 two microelectrode amplifier (Dagan Corporation, Minneapolis, Minn.) interfaced to a Macintosh 7100/80 computer. The current passing electrode was filled with 0.7 M KCl, 1.7 M KCitrate, and the voltage recording electrode was filled with 1 M KCl. Throughout the experiment oocytes were superfused with modified ND-96 (control solution) or with ND-96 containing potential channel activators and blockers at a rate of approximately 3 ml/min. Data were acquired at 100 Hz and filtered at 33.3 Hz using Pulse software from HEKA Elektronik (Lambrecht, Germany). All recordings were performed from a holding potential of either 0 or −30 mV.

[2] = tested on: DvLGIC/GluCl 10-2; assay: DvLGIC/GluCl 10-2 expressed in Xenopus oocytes, current response; conditions: concentration not given
Source text: as §1
(§4) Xenopus laevis oocytes were prepared and injected using standard methods previously described [Arena, J. P., Liu, K. K., Paress, P. S. & Cully, D. F. Mol. Pharmacol. 40, 368-374 (1991); Arena, J. P., Liu, K. K., Paress, P. S., Schaeffer, J. M. & Cully, D. F., Mol. Brain Res. 15, 339-348 (1992)]. […]

[3] = tested on: DvLGIC/GluCl 7-1; assay: Two-microelectrode voltage clamp of Xenopus oocytes injected with DvLGIC/GluCl 7-1 RNA
Source text: as §1, §2, §3

[4] = tested on: DvLGIC/GluCl 11; assay: DvLGIC/GluCl 11 expressed in Xenopus oocytes, current response; conditions: concentration not given
Sequence of DvLGIC/GluCl 11 (as listed by the source): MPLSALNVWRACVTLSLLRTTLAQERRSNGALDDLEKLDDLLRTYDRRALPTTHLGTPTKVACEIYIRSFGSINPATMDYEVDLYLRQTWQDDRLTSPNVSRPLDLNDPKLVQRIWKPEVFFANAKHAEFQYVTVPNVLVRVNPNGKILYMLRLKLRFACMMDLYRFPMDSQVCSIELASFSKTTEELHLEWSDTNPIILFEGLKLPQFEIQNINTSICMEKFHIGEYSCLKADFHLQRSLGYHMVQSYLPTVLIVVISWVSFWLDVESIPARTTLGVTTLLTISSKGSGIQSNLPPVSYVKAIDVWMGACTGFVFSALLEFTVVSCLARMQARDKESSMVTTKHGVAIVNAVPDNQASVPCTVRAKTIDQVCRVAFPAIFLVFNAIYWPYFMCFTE
Source text: as §1, §4

[5] = 1 μM ivermectin phosphate, holding potential 0 or −30 mV
[6] = Xenopus oocytes, concentration not given
[7] = after 1 μM ivermectin phosphate

Compound	current in response to application ([1]; 1 mM glutamate)	responsiveness of the channel to the substance [2]	current in response to application ([3]; 1 mM glutamate)	current in response to application [1, 5]	concentration at which current activation was maximal ([1]; Xenopus oocytes injected with DvLGIC/GluCl 1 mRNA, FIG. 9)	current in response to addition [1, 6]	reversibility of current upon wash-out [1, 7]	current in response to addition [4]	current in response to application [3, 5]	concentration at which current activation was maximal ([3]; DvLGIC/GluCl 7-1 expressed in Xenopus oocytes, FIG. 10)	current in response to addition [3, 6]	reversibility of current upon wash-out [3, 7]
N[C@@H](CCC(=O)O)C(=O)O [glutamate]	did not activate a current	not responsive	did not activate a current	–	–	–	–	–	–	–	–	–
ivermectin phosphate	–	not responsive	–	slowly activating current	1 µM	exhibit a current	irreversible	exhibit a current	slowly activating current	~1 µM	exhibit a current	irreversible
